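1) Cells in 96-well plates. 2) Compound, 48 h, 5 concentrations. 3) Linear interpolation between surrounding doses. 4) Unreached endpoint = highest concentration. GI50: concentration for 50% inhibition of growth. TGI is the concentration that stops growth completely.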
Legend:
Experiment in all cases: NCI anticancer screen, dose series, 48 h
A498 renal = system: A498 renal
SNB-75 CNS = system: SNB-75 CNS
SR leukemia = system: SR leukemia
OVCAR-3 ovarian = system: OVCAR-3 ovarian
NCI-H460 lung = system: NCI-H460 lung
SNB-19 CNS = system: SNB-19 CNS
OVCAR-5 ovarian = system: OVCAR-5 ovarian
NCI-H522 lung = system: NCI-H522 lung
HCT-116 colon = system: HCT-116 colon
RPMI-8226 leukemia = system: RPMI-8226 leukemia

SMILES | GI50 (A498 renal) | TGI (A498 renal) | GI50 (SNB-75 CNS) | TGI (SNB-75 CNS) | GI50 (SR leukemia) | TGI (SR leukemia) | GI50 (OVCAR-3 ovarian) | TGI (OVCAR-3 ovarian) | GI50 (NCI-H460 lung) | TGI (NCI-H460 lung) | GI50 (SNB-19 CNS) | TGI (SNB-19 CNS) | GI50 (OVCAR-5 ovarian) | TGI (OVCAR-5 ovarian) | GI50 (NCI-H522 lung) | TGI (NCI-H522 lung) | GI50 (HCT-116 colon) | TGI (HCT-116 colon) | TGI (RPMI-8226 leukemia) | GI50 (RPMI-8226 leukemia)
CCCCCCCCCCCCCCCC[N+](C)(CCO)Cc1cnc[nH]1 (stereo unspecified) | 2.93 µM | 12.2 µM | 1.11 µM | 5.86 µM | 1.97 µM | > 100 µM | 0.995 µM | 3.31 µM |  |  |  |  |  |  |  |  |  |  |  | 
CC(=O)[O-].[Mn+3].[O-]c1ccccc1C=NCCN=Cc1ccccc1[O-] | > 100 µM | > 100 µM | > 100 µM | > 100 µM | 70.9 µM | > 100 µM | 17 µM | > 100 µM | 44.4 µM | > 100 µM | > 100 µM | > 100 µM | 96.4 µM | > 100 µM | 16 µM | > 100 µM | 95.5 µM | > 100 µM |  | 
O=C(c1ccccc1)c1oc2ccc(Br)cc2c1-c1cnn(-c2ccccc2)c1 |  |  |  | > 100 µM |  |  |  | > 100 µM |  | > 100 µM |  | > 100 µM |  | > 100 µM |  | > 100 µM |  |  | > 100 µM | 
Cc1nc(-c2ccccc2)cc2c1c(=O)oc1ccccc12 |  |  |  | > 100 µM |  | > 100 µM |  | > 100 µM |  | > 100 µM |  | > 100 µM |  | > 100 µM |  | > 100 µM |  | > 100 µM | > 100 µM | 
CN(CCc1ccccn1)c1nc(=[N+](C)C)ss1 |  | > 100 µM |  | > 100 µM |  |  |  | > 100 µM |  | > 100 µM |  | > 100 µM |  | > 100 µM |  | > 100 µM |  |  | > 100 µM | 
CC(=O)O[C@H]1CCC2[C@@H]3CCC4=C(O)C(=O)C(C#N)C[C@]4(C)C3CC[C@@]21C (stereo partly specified) |  | 0.891 µM |  | 72.1 µM |  |  |  | > 100 µM |  | > 100 µM |  | > 100 µM |  | > 100 µM |  |  |  | > 100 µM | > 100 µM | 
O=C(Cc1nc2ccccc2s1)C(=O)Nc1cccc(Cl)c1 |  | > 100 µM |  | > 100 µM |  |  |  | > 100 µM |  |  |  | > 100 µM |  | > 100 µM |  | > 100 µM |  | > 100 µM | > 100 µM | 
COC1=CC23CCCN2CCc2cc4c(cc2C3C1O)OCO4 (stereo unspecified) |  | > 100 µM |  | > 100 µM |  |  |  |  |  | > 100 µM |  | 67.8 µM |  | > 100 µM |  | > 100 µM |  | > 100 µM |  | 
O=Cc1ccc(-c2ccc(-c3nc4ccccc4o3)cc2)s1 |  |  |  |  | 15.3 µM | 47.7 µM | 16.5 µM | 45.4 µM | 23.7 µM | 85.3 µM | 49.2 µM | > 100 µM | 78.4 µM | > 100 µM | 47.3 µM | > 100 µM | 19.3 µM | 42.6 µM |  | 
O=C(/C=N/O)Nc1cc(Cl)c(Cl)cc1Cl |  | 55.5 µM |  | 66.6 µM |  |  |  | 79.5 µM |  | > 100 µM |  | > 100 µM |  | > 100 µM |  | 67.8 µM |  | 90.1 µM | 88.8 µM | 
CCOC(=O)C(=O)Nc1ccc(Cl)cc1C |  |  |  | > 100 µM |  | > 100 µM |  | > 100 µM |  | > 100 µM |  | > 100 µM |  | > 100 µM |  | > 100 µM |  | > 100 µM | > 100 µM | 
CC(C)C1CC2C(=O)N(c3ccccc3)C(=O)C2c2[nH]c3ccccc3c21 (stereo unspecified) |  | > 100 µM |  | 23.5 µM |  |  |  | 38 µM |  | > 100 µM |  |  |  | > 100 µM |  |  |  | 14.8 µM | > 100 µM | 
CC1=C(C(=O)NCc2ccccc2)C(c2ccc([N+](=O)[O-])cc2)C(C(=O)NCc2ccccc2)=C(C)N1 |  | > 100 µM |  | > 100 µM |  |  |  | > 100 µM |  | > 100 µM |  | > 100 µM |  | 93.5 µM |  | > 100 µM |  | 60.6 µM |  | 
COc1ccc(NC(=O)CC/C(CC(=O)C(C)(C)C)=N\NC(=O)C(N)=O)cc1 |  |  |  |  |  | > 100 µM |  | > 100 µM |  | > 100 µM |  | > 100 µM |  | > 100 µM |  |  |  | > 100 µM |  | 
Cc1ccccc1C(=O)Oc1ccc(O)cc1 |  | > 100 µM |  | > 100 µM |  |  |  | > 100 µM |  | > 100 µM |  | > 100 µM |  | > 100 µM |  | > 100 µM |  | > 100 µM | > 100 µM | 
COC(=O)CCC(=O)Nc1cc(Cl)ccc1Cl |  |  |  |  |  | > 100 µM |  | > 100 µM |  | > 100 µM |  | > 100 µM |  | > 100 µM |  | > 100 µM |  | > 100 µM | > 100 µM | 
OC(COc1ccc(F)cc1)Cn1cnc2c(Cl)ncnc21 (stereo unspecified) | > 100 µM | > 100 µM | > 100 µM | > 100 µM |  |  | 74 µM | > 100 µM | > 100 µM | > 100 µM | > 100 µM | > 100 µM | > 100 µM | > 100 µM | > 100 µM | > 100 µM | > 100 µM | > 100 µM | > 100 µM | 39.7 µM
Cc1cc2cn3c4ccc(O)cc4[nH]c(=O)c3c2cc1C | 0.0319 µM | 1.43 µM |  |  | 0.0342 µM | 0.415 µM | 0.0125 µM | 0.0399 µM |  |  | 0.0358 µM | 1.68 µM | 0.223 µM | 2.02 µM | 0.0164 µM | 0.0697 µM |  |  | 3.28 µM | 0.252 µM
COC(=O)c1c(O)c([N+](=O)[O-])cc2c1c1c(n2Cc2ccccc2)C(=O)c2ccccc2C1=O | 18.5 µM | 49 µM | > 100 µM | > 100 µM |  |  | 11.5 µM | 69.7 µM | 4.94 µM | 27.3 µM | 17.1 µM | 65.3 µM | 28.6 µM | 66.7 µM | 23.3 µM | 65.6 µM | 4.06 µM | 17.5 µM | 24.9 µM | 2.32 µM
CC(=O)O[C@@H]1[C@@H](O)C2=C3[C@]4(C)[C@@H]1C(C)(C)C(=O)C[C@@H]4[C@]3(O)[C@H](OC(C)=O)[C@@]1(C[C@@H]1C)C2=O |  | 45.8 µM |  | 75.4 µM |  |  |  | 36.5 µM |  | 40.1 µM |  | 61.5 µM |  | 54.9 µM |  | 19.2 µM |  | 30.8 µM | 98.4 µM | 
CC1=C(C(=O)Nc2cc(=O)n(C)c(=O)n2C)C(c2ccc([N+](=O)[O-])cc2)C(C(=O)Nc2cc(=O)n(C)c(=O)n2C)=C(C)N1 |  | > 100 µM |  | > 100 µM |  |  |  | > 100 µM |  | > 100 µM |  | > 100 µM |  | > 100 µM |  | > 100 µM |  | > 100 µM | > 100 µM | 
